Results published in ChEMBL document CHEMBL6074675, “4-Substituted-2-Thiazole Amides as Viral Replication Inhibitors of Alphaviruses” (J Med Chem, 2024).
Converted amounts (≈) assume the structure as drawn.

Legend:
[1] = system: Chikungunya virus; experiment: Antiviral activity against Chikungunya virus 181/25 infected in human NHDF cells assessed as log reduction of virus titer at 10 uM treated with cells at 1 hr prior to infection and measured at 24 hrs post-infection by plaque assay; type: functional; settings: time 25 hrs
[2] = Cytotoxicity against human NHDF cells deficient of IRF3 assessed as reduction in cell viability incubated for 72 hrs by CellTiter Glo luminescence assay; type: toxicity, cell-based
[3] = Kinetic solubility of the compound in simulated intestinal fluid at pH 7.5 by LC-MS analysis; type: physicochemical; settings: read-out: Kinetic_solubility
[4] = Octanol/PBS buffer distribution coefficient, logD of the compound at pH 7.5 by LC-MS analysis; type: physicochemical
[5] = Half life of the compound in mouse liver microsomes in presence of NADPH by LC-MS/MS analysis; type: ADME, Microsome
[6] = Half life of the compound in human liver microsomes in presence of NADPH by LC-MS/MS analysis; type: ADME, Microsome
[7] = system: Chikungunya virus; experiment: Antiviral activity against Chikungunya virus 181/25 infected in human NHDF cells assessed as reduction of virus titer treated with cells at 1 hr prior to infection and measured at 24 hrs post-infection by plaque assay; type: functional, organism-based; settings: 181/25, NHDF; for EC90: time 25 hrs
[8] = Cytotoxicity against human NHDF cells assessed as reduction in cell viability incubated for 24 hrs by CellTiter Glo luminescence assay; type: toxicity, cell-based
[9] = system: Venezuelan equine encephalitis virus; experiment: Antiviral activity against VEEV TC-83 infected in human NHDF cells assessed as reduction of virus titer treated with cells at 1 hr prior to infection and measured at 24 hrs post-infection by plaque assay; type: functional; settings: TC-83, NHDF, time 25 hrs
[10] = system: Venezuelan equine encephalitis virus; experiment: Antiviral activity against VEEV TC-83 infected in human NHDF cells assessed as log reduction of virus titer at 10 uM treated with cells at 1 hr prior to infection and measured at 24 hrs post-infection by plaque assay; type: functional; settings: time 25 hrs
[11] = system: West Nile virus; experiment: Antiviral activity against West Nile virus NY99 infected in human HEK293 cells assessed as reduction of virus load measured at 3 days post-infection by focus-forming assay; type: functional; settings: NY99, HEK293, 72 h, time 3 day
[12] = system: dengue virus type 2; experiment: Antiviral activity against Dengue virus 2 NGC infected in human HEK293 cells assessed as reduction of virus load measured at 3 days post-infection by focus-forming assay; type: functional; settings: HEK293, 72 h, time 3 day
[13] = system: dengue virus type 2; experiment: Antiviral activity against Dengue virus 2 NGC infected in human HEK293 cells assessed as log reduction of virus titer at 10 uM measured at 3 days post-infection by focus-forming assay; type: functional; settings: time 3 day
[14] = system: Zika virus; experiment: Antiviral activity against Zika virus PRABC59 infected in human HEK293 cells assessed as reduction of virus load measured at 3 days post-infection by focus-forming assay; type: functional; settings: PRABC59, HEK293, 72 h, time 3 day
[15] = system: Zika virus; experiment: Antiviral activity against Zika virus PRABC59 infected in human HEK293 cells assessed as log reduction of virus titer at 10 uM measured at 3 days post-infection by focus-forming assay; type: functional; settings: time 3 day
[16] = Cytotoxicity against human HEK293 cells; type: toxicity, cell-based
[17] = system: West Nile virus; experiment: Antiviral activity against West Nile virus NY99 infected in human HEK293 cells assessed as log reduction of virus titer at 10 uM measured at 3 days post-infection by focus-forming assay; type: functional; settings: time 3 day
[18] = system: Chikungunya virus; experiment: Antiviral activity against Chikungunya virus Sri Lanka strain infected in African green monkey Vero E6 cells assessed as inhibition of virus-induced cytopathic effect incubated for 72 hrs by CellTiter Glo luminescence assay; type: functional, organism-based; settings: Vero C1008, 72 h
[19] = Cytotoxicity against African green monkey VeroE6 cells assessed as reduction in cell viability incubated for 72 hrs by CellTiter Glo luminescence analysis; type: toxicity, cell-based, Vero C1008; settings: chlorocebus sabaeus
[20] = system: Chikungunya virus; experiment: Antiviral activity against Chikungunya virus infected in human NHDF cells assessed as inhibition of viral production by NanoLuc reporter assay; type: functional, organism-based

Row | Structure (SMILES) | log(activity) [1] | CC50 at 72 h [2] | solubility kinetic [3] | logD [4] | half-life [5] | half-life [6] | EC90 [7] | other results
1 | CSc1ncccc1C(=O)Nc1nc(-c2cccc(N3CCNCC3)c2)cs1 | 8.7 | > 30 µM | 59 µM (≈ 24.3 µg/mL) | 1.8 | 211 min | > 300 min |  | 
2 | CSc1ncccc1C(=O)Nc1nc(-c2cc(C(=O)O)cc(-c3ccc(C#N)cc3)c2)cs1 | 0 | > 40 µM | < 1 µM | 1.9 | > 300 min | > 300 min |  | 
3 | CC(C)(C)c1ncc(C(=O)Nc2nc(-c3ccc4ccccc4c3)cs2)s1 | 7.5 | > 30 µM | < 1 µM | > 3.03 | 9 min | 51 min | 3.5 µM | 
4 | CSc1ncccc1C(=O)Nc1nc(-c2cc(Nc3ccc(C#N)cc3)cc(N3CCOCC3)c2)cs1 | 5.1 | > 40 µM | < 1 µM | > 3.92 | 64 min | 15 min | 0.1 µM | CC50 at 24 h [8]: > 30 µM; EC90 [9]: 0.45 µM; log(activity) [10]: 3.81; EC90 [11]: 24 µM; EC90 [12]: 1.8 µM; log(activity) [13]: 1.9; EC90 [14]: 0.8 µM; log(activity) [15]: 1.7; CC50 [16]: > 30 µM
5 | CC(C)(C#N)c1ccc(C(=O)Nc2nc(-c3ccc4ccccc4c3)cs2)cc1 | 2.6 | > 30 µM | < 1 µM | > 3.85 | 129 min | 98 min | 1.5 µM | 
6 | CSc1ncccc1C(=O)Nc1nc(-c2cccc(-c3ccc(C#N)c(O)c3)c2)cs1 | 8.5 | > 30 µM | 3 µM (≈ 1.33 µg/mL) | > 3.91 | 49 min | 43 min |  | 
7 | CSc1ncccc1C(=O)Nc1nc(-c2cccc(-c3ccc(C#N)cc3)c2)cs1 | 4.7 | > 30 µM | < 1 µM | > 4.66 | 57 min | 39 min |  | 
8 | CSc1ncccc1C(=O)Nc1nc(-c2cccc(-c3ccccn3)c2)cs1 | 4 | > 30 µM | < 1 µM | > 3.83 | 8 min | 15 min | 0.7 µM | 
9 | CC(C)(C(=O)O)c1ccc(C(=O)Nc2nc(-c3ccc4ccccc4c3)cs2)cc1 | 0 | > 30 µM | 64 µM (≈ 26.7 µg/mL) | 2.1 | 213 min | 292 min |  | 
10 | CSc1ncccc1C(=O)Nc1nc(-c2cccc(-c3ccccc3)c2)cs1 | 7.8 | > 30 µM | < 1 µM | > 4.15 | 51 min | 34 min |  | 
11 | CSc1ncccc1C(=O)Nc1nc(-c2cccc(-c3ccc(C#N)cn3)c2)cs1 | 6 | > 30 µM | < 1 µM | > 3.97 | 34 min | 25 min |  | 
12 | COc1cc(Nc2cccc(-c3csc(NC(=O)c4cccnc4SC)n3)c2)ccc1C#N | 5.1 | > 30 µM | < 1 µM | > 4.33 | 34 min | 25 min |  | CC50 at 24 h [8]: > 30 µM; EC90 [9]: 0.21 µM; log(activity) [10]: 2; EC90 [11]: 1.2 µM; log(activity) [17]: 2.9; EC90 [12]: 0.4 µM; log(activity) [13]: 3; EC90 [14]: 0.5 µM; log(activity) [15]: 3; CC50 [16]: > 30 µM
13 | O=C(Nc1nc(-c2ccc3ccccc3c2)cs1)c1cc(F)c(O)c(F)c1 | 7.6 | 20 µM | < 1 µM | > 3.45 | 36 min | 137 min | 2.9 µM | 
14 | CSc1ncccc1C(=O)Nc1nc(-c2cccc(Nc3ccc(C#N)c(C(=O)O)c3)c2)cs1 | 0.15 | > 40 µM | 84 µM (≈ 41 µg/mL) | 1.4 | 72 min | 145 min | > 40 µM | 
15 | CSc1ncccc1C(=O)Nc1nc(-c2cccc(Nc3ccc(CN)cc3)c2)cs1 | 1.2 | 15.4 µM | 33 µM (≈ 14.8 µg/mL) | 2.2 | 234 min | 37 min | 9.8 µM | 
16 | CCOC(=O)N1CCN(c2cc(-c3ccc(C#N)cc3)cc(-c3csc(NC(=O)c4cccnc4SC)n3)c2)CC1 | 8.1 | > 40 µM | < 1 µM | > 3.99 | 63 min | 21 min | 0.02 µM | CC50 at 24 h [8]: > 30 µM; EC90 [9]: 0.02 µM; log(activity) [10]: 4.9; EC90 [11]: 0.15 µM; log(activity) [17]: 4; EC90 [12]: 0.3 µM; log(activity) [13]: 3.3; EC90 [14]: 0.15 µM; log(activity) [15]: 3.5; CC50 [16]: > 30 µM
17 | Cc1ncccc1C(=O)Nc1nc(-c2ccc3ccccc3c2)cs1 | 1.9 | > 30 µM | 3 µM (≈ 1.04 µg/mL) | > 4.27 | 26 min | 26 min | 3.2 µM | 
18 | CSc1ncccc1C(=O)Nc1nc(-c2cc(-c3ccc(C#N)cc3)ccc2F)cs1 | 5.8 | > 30 µM | < 1 µM | 2 | 69 min | 85 min |  | 
19 | CSc1ncccc1C(=O)Nc1nc(-c2cccc(Nc3ccc(C#N)c(O)c3)c2)cs1 | 1.2 | 15.9 µM | 1 µM (≈ 0.46 µg/mL) | > 3.46 | 35 min | 43 min | 10.1 µM | 
20 | CSc1ncccc1C(=O)Nc1nc(-c2cccc(Nc3cccc(C#N)c3)c2)cs1 | 5.7 | > 30 µM | < 1 µM | > 3.54 | 33 min | 25 min |  | CC50 at 24 h [8]: > 30 µM; EC90 [9]: 0.6 µM; log(activity) [10]: 7.3; EC90 [11]: 1.1 µM; log(activity) [17]: 4.3; EC90 [12]: 0.5 µM; log(activity) [13]: 3.7; EC90 [14]: 0.4 µM; log(activity) [15]: 3.4; CC50 [16]: > 30 µM
21 | CSc1ncccc1C(=O)Nc1nc(-c2cccc(-c3cccc(C#N)c3)c2)cs1 | 5.3 | > 30 µM | < 1 µM | 3 | 31 min | 21 min | 0.1 µM | CC50 at 24 h [8]: > 30 µM; EC90 [9]: 0.35 µM; log(activity) [10]: 5.2; EC90 [11]: 1.5 µM; log(activity) [17]: 2.7; EC90 [12]: 0.3 µM; log(activity) [13]: 2.9; EC90 [14]: 0.3 µM; log(activity) [15]: 3.5; CC50 [16]: > 30 µM
22 | CSc1ncccc1C(=O)Nc1nc(-c2cc(F)cc(-c3ccc(C#N)cc3)c2)cs1 | 6.1 | > 30 µM | < 1 µM | > 4.09 | 123 min | 53 min |  | 
23 | CC(C)(C)c1ccc(C(=O)Nc2nc(-c3ccc4ccccc4c3)cs2)cc1 | 4.3 | > 30 µM | < 1 µM | > 3.32 | 8 min | 49 min | 0.1 µM | 
24 | CSc1ncccc1C(=O)Nc1nc(-c2ccc3ccccc3c2)cs1 | 6.9 | > 40 µM | < 1 µM | 4.8 | 27 min | 35 min | 0.93 µM | EC50 [18]: 4.5 µM; CC50 at 72 h [19]: 107 µM; EC50 [7]: 4.7 µM; CC50 at 24 h [8]: 132 µM; EC50 [20]: 1.06 µM
25 | CSc1ncccc1C(=O)Nc1nc(-c2ccc3ncccc3c2)cs1 | 1.2 | 18 µM | 56 µM (≈ 21.2 µg/mL) | 3.8 | 13 min | 17 min | 7.9 µM | 
26 | CSc1ncccc1C(=O)Nc1nc(-c2cccc(Nc3ccc(C#N)cn3)c2)cs1 | 2.2 | 40 µM | < 1 µM |  | 17 min | 19 min | 4.8 µM | 
